According to PMC6625793, “The autophagic membrane tether ATG2A transfers lipids between membranes” (eLife, 2019):

Legend:
Assay type in all cases: binding
[1] = biological target: T1, ATG2A (Homo sapiens, UniProt Q2TAZ0); test: lipid extraction from LUVs, Nycodenz flotation, native PAGE fluorescence; conditions: 20 mM HEPES pH 7.5, 150 mM NaCl, 1 mM TCEP; ~22 °C; 20% NBD-PE/80% DOPC LUVs; labelled compound
T1 construct: full-length (1938 residues); N-terminal GST cleaved by TEV, C-terminal TwinStrepII tag kept; expressed in Sf9 insect cells
T1 sequence (Q2TAZ0 whole entry): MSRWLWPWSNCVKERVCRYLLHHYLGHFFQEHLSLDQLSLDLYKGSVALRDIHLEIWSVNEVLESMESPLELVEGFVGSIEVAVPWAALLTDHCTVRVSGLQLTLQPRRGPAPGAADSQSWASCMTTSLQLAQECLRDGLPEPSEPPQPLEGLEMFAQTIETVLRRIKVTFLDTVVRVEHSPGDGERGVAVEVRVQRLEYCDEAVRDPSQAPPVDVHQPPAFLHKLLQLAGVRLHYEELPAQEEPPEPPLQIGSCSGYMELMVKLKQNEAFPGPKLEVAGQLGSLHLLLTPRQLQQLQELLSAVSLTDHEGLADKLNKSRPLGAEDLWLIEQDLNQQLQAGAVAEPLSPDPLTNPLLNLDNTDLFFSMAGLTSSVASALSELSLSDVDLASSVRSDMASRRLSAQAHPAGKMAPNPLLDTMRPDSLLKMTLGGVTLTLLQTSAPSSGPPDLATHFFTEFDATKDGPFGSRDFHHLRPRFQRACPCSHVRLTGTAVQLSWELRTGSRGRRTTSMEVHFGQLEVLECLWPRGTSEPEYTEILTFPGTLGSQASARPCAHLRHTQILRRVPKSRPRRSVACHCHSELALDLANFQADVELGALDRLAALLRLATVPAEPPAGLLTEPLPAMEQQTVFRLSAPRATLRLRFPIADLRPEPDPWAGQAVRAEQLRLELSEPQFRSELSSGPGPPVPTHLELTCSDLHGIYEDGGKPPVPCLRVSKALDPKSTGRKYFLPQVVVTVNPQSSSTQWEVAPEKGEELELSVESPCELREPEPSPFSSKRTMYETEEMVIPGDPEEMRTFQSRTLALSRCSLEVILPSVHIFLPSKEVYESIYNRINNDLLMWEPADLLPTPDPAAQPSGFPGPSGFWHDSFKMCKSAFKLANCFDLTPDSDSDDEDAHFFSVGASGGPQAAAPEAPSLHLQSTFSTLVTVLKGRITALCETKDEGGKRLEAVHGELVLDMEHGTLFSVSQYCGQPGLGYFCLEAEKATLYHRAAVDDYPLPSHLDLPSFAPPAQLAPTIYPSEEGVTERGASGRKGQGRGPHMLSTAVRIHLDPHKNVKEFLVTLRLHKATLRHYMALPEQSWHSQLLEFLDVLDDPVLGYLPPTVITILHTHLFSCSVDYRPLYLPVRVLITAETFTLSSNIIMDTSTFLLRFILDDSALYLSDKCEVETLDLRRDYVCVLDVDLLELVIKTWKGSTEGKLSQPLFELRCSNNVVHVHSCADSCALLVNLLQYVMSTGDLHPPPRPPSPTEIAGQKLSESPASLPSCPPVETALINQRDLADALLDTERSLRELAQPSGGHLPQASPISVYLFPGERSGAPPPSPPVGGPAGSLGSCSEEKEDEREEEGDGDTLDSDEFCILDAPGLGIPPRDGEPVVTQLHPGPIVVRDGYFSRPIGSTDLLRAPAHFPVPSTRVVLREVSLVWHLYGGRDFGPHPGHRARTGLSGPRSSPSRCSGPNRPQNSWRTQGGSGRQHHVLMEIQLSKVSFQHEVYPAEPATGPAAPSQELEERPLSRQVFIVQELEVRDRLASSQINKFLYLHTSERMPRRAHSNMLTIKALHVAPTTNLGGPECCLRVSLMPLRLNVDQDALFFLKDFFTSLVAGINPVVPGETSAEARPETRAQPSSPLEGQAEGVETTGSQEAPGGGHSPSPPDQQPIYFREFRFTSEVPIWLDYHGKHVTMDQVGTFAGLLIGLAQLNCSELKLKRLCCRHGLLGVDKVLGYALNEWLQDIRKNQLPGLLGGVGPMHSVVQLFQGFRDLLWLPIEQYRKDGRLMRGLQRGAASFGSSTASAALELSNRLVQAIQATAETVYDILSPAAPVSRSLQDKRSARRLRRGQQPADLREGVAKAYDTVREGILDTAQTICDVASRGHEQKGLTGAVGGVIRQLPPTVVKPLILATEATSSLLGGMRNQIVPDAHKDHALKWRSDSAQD

[2] = biological target: T2, WIPI4 (Homo sapiens, UniProt Q9Y484); test: liposome flotation, western blot; conditions: 20 mM HEPES pH 7.5, 150 mM NaCl, 1 mM TCEP; LUVs with 5% PI3P versus without PI3P
T2 construct: gene WDR45; N-terminal 10xHis tag kept in flotation assays; expressed in Sf9 insect cells
T2 sequence (Q9Y484 1-360): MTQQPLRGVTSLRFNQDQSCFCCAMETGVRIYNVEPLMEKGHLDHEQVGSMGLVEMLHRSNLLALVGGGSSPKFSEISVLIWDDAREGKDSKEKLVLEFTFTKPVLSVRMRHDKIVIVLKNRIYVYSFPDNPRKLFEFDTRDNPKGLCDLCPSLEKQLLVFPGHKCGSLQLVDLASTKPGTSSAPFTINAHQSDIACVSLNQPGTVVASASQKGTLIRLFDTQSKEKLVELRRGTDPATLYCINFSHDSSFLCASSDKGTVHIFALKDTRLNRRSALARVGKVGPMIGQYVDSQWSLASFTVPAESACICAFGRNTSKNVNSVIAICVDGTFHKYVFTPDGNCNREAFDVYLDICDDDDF

[3] = biological target: T3, WIPI1 (Homo sapiens, UniProt Q5MNZ9); test: liposome flotation, western blot; conditions: 20 mM HEPES pH 7.5, 150 mM NaCl, 1 mM TCEP; LUVs with 5% PI3P versus without PI3P
T3 construct: residues 1-446; N-terminal 6xHis tag kept in flotation assays; expressed in Sf9 insect cells
T3 sequence (Q5MNZ9 1-446): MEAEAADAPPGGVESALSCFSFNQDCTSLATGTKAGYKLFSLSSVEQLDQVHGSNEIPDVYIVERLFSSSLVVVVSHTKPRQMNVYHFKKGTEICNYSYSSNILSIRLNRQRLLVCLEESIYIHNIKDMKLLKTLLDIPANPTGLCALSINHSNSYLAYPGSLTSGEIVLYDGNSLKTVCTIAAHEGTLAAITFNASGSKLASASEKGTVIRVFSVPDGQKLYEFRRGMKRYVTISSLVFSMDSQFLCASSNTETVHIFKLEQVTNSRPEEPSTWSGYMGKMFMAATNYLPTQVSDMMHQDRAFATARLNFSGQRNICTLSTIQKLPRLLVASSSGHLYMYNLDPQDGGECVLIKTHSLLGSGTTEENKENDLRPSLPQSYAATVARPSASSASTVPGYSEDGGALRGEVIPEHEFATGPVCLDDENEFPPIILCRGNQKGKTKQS

Structure (SMILES): CCCCCCCC/C=C\CCCCCCCC(=O)OC[C@H](COP(=O)(O)OCCNc1ccc([N+](=O)[O-])c2nonc12)OC(=O)CCCCCCC/C=C\CCCCCCCC [NBD-PE, 1,2-dioleoyl-sn-glycero-3-phosphoethanolamine-N-(7-nitro-2–1,3-benzoxadiazol-4-yl)]
- lipid extraction from LUVs, Nycodenz flotation, native PAGE fluorescence [1]: ATG2A can extract NBD-PE from membranes and dissociate from the membrane with those lipids attached

Structure (SMILES): CCCCCCCC/C=C\CCCCCCCC(=O)OC[C@H](COP(=O)(O)O[C@@H]1[C@H](O)[C@H](OP(=O)(O)O)[C@@H](O)[C@H](O)[C@H]1O)OC(=O)CCCCCCC/C=C\CCCCCCCC [PI3P]
- liposome flotation, western blot [2]: both WIPIs bind to membranes in a PI3P-dependent manner
- liposome flotation, western blot [3]: both WIPIs bind to membranes in a PI3P-dependent manner
